Reference: patent publication US8993593B2, “N-(4-(6-fluoro-3,4-dihydroisoquinolin-2(1H)-yl)-2,6-dimethylphenyl)-3,3-dimethylbutanamide as potassium channel modulators” (Valeant Pharmaceuticals International, priority 2006, dated 2015)

What was measured:
[1] = tested on: mouse maximal electroshock seizure (MES) model; experiment: Maximal electroshock seizure (MES) test, mouse; assay type: in vivo; conditions: MES, mouse; read-out: Mouse ED50
From the text: (§1) The MES testing protocol is based on procedures established at the National Institute of Neurological Disorders and Stroke in conjunction with the Anticonvulsant Screening Program (ASP) at the University of Utah (White, H. S., Woodhead, J. H., Wilcox, K. S., Stables, J. P., Kupferberg, H. J and Wolf, H. H. 2002. “General Principles: Discovery and Preclinical Development of Antiepileptic Drugs,” in Antiepileptic Drugs, 5th Edition, R. H. Levy, ed.; R. H. Mattson, B. S. Meldrum, and E. Perucca. Philadelphia, Lippincott Williams & Wilkins.), The goal of the test rapid identification and characterization of the in vivo anticonvulsant activity of any compounds that have been shown active in PC-12 cellular based Rb^+ efflux assay.
(§2) Adult male CF-I albino mice (18-25 g, Charles River Laboratories) are exclusively used for in-house MES screen of compounds. Male Sprague-Dawley albino rats (100-125 g, Charles River Laboratories) are also used to test anticonvulsant compounds. Variability of test outcomes is reduced by using animals of the same sex, age, and weight. Animals are permitted to rest and recover from transit for at least 48 hr prior to experimentation. Animals are used for AED testing only once. In some instances, the animals may be anesthetized prior to blood collection and/or whole brain extraction for pharmacokinetic assay. All animals are maintained and handled as outlined in standard animal care guidelines.
(§3) In the experiments, testing compounds are prepared as suspensions in 0.5% methyl cellulose (Sigma, Cat #M0512, Viscosity 4000 cP at 20° C.) in water, regardless of solubility. Dry powder compounds are initially ground with a glass rod in a test tube in several drops of methyl cellulose to create a paste and to break down any large chunks. After several minutes of grinding, the volume of the suspension is increased to the final concentration desired. The suspension is then sonicated using a Branson sonicator model 3510 in a water bath at room temperature for 15 minutes. Compound suspensions are further vortexed prior to animal dosing. In some of the cases, DMSO is used to initially solubilize compounds in small volumes and then this solution is added to the 0.5% methyl cellulose solution, in order to create more even and less aggregated compound suspensions. The final concentration of DMSO is 3.75%, an amount with no apparent toxicity or neuroprotective effects in our usual rotarod and MES tests. Methyl cellulose/DMSO compound suspensions are identically prepared for intraperitoneally (i.p.) to mice or orally (p.o.) to rat dosing.
Initially the animals are weighed with an electronic scale and then marked. Data recording sheets are generated for each compound assessment. Mice or rats are dosed with the compound suspension at 0.01 mL/g of body weight. The typical injection volume range is between 180-250 μl for mice. […] Rats are p.o. dosed using a flexible feeding tube, typically starting at a compound dose of 5 mg/kg.
A Rodent Electroconvulsive Stimulator (Model 200, Hamit-Darvin-Freesh, Snow Canyon Clinic, Ivins, Utah) is used for MES testing. A 60-Hz alternating current (50 mA for mice; 150 mA for rats) is delivered for 0.2 seconds through corneal electrodes to the mice. A drop of 0.5% tetracaine (Sigma, Cat. #T-7508) solution is placed on the eye prior to current delivery. The electrodes are subsequently placed gently onto the eyes of the animal and the electrical shock is initiated by triggering through a foot-pedal activator. The animals are restrained by hand and gently released as the shock is delivered and the seizure commences. Animals are monitored for hind limb tonic extension as the end point for this test. Current delivery is recorded as a measure of overall seizure-induction potential. Electrical current delivery can vary from approximately 30-55 mA (mice) or 90-160 mA (rats) depending on impedance in the animal and quality of the current delivery (ie. correct placement of the electrodes on the cornea). […]

[2] = tested on: rat MES model of epilepsy; experiment: Maximal electroshock seizure (MES) test, rat; assay type: in vivo; conditions: MES, rat; read-out: Rat ED50
From the text: as §1, §2, §3
Initially the animals are weighed with an electronic scale and then marked. Data recording sheets are generated for each compound assessment. Mice or rats are dosed with the compound suspension at 0.01 mL/g of body weight. The typical injection volume range is between 180-250 μl for mice. Compounds are dosed by i.p. to mice using a 25 or 22 gauge needle, depending on the viscosity of the suspension. Rats are p.o. dosed using a flexible feeding tube, typically starting at a compound dose of 5 mg/kg.
A Rodent Electroconvulsive Stimulator (Model 200, Hamit-Darvin-Freesh, Snow Canyon Clinic, Ivins, Utah) is used for MES testing. A 60-Hz alternating current (50 mA for mice; 150 mA for rats) is delivered for 0.2 seconds through corneal electrodes to the mice. […] Animals are monitored for hind limb tonic extension as the end point for this test. Current delivery is recorded as a measure of overall seizure-induction potential. […]

KCNQ1 = KCNQ1 (Homo sapiens, UniProt P51787); experiment: Two-electrode voltage-clamp in Xenopus laevis oocytes, KCNQ1; assay type: cell-based; design: KCNQ1 Block (%): dose or concentration left out as unconfirmed; conditions: oocyte expression
Description: (§4) Female Xenopus laevis extracted ovaries were purchased from eNASCO (LM00935MX, eNASCO Fort Atkinson, Wis.). […] Approximately 50 nl cRNA (about 50 ng) was injected for KCNQ1, KCNQ4, and KCNQ5 using a Nanoject microinjector (Drummond, Broomall, Pa., USA). For co-expression of KCNQ2 and KCNQ3 and of KCNQ1 and KCNE1, cRNA's were mixed in equal molar ratios before injection of approximately 50 nl. […] Oocytes were kept in Culture Barth solution at 19° C. which was changed daily and currents were recorded after 3 to 5 days.
(§5) KCNQ channel currents expressed in Xenopus laevis oocytes were recorded using a two-electrode voltage-clamp. […] The oocytes were placed in custom built perfusion chambers connected to a continuous flow system and impaled with a current electrode and a voltage-clamp electrode pulled from borosilicate glass on a Flaming/Brown Micropipette Puller (Sutter Instruments Co, Novato, Calif., USA).
(§6) All compounds were dissolved in DMSO to obtain concentrated stock solutions. On the day of electrophysiological experiments the stock solutions were thawed and diluted in recording solution to their final concentrations. The final DMSO concentration never exceeded 0.1%. Compound delivery was performed using a custom built multi-barrel apparatus connected to the flow system.
(§7) Data were acquired by means of an Axograph X software (Axograph Scientific, Sydney, AU) and analyzed using Graph Pad Prism (GraphPad Software Inc., CA, USA). […]
(§8) After steady channel current was recorded in the presence of Retigabine at its EC75, recorded oocyte was washed with the recording solution until its steady current returned to its normal level without the presence of any drugs. Then the channel steady current was recorded in the presence of the test compound at its EC75. The percent efficacy was then expressed as: % efficacy=(C2/C 1)×100 where C2 is the recorded steady current in the presence of follow-on compound at its EC75 and C1 is the recorded steady current in the presence of Retigabine at its EC75.

KCNQ1/NE1 = KCNQ1/NE1 (Homo sapiens, UniProt P51787); experiment: Two-electrode voltage-clamp in Xenopus laevis oocytes, KCNQ1/KCNE1; assay type: cell-based; design: dose or concentration left out as unconfirmed; conditions: oocyte expression
Description: as §4
KCNQ channel currents expressed in Xenopus laevis oocytes were recorded using a two-electrode voltage-clamp. […]
as §7, §8

KCNQ2/3 = KCNQ2/3 (Homo sapiens, UniProt O43525+O43526); experiment: Two-electrode voltage-clamp in Xenopus laevis oocytes, KCNQ2/3; assay type: cell-based; conditions: oocyte expression, at EC75
Description: as §4, §5, §6, §7, §8

KCNQ4 = KCNQ4 (Homo sapiens, UniProt P56696); experiment: Two-electrode voltage-clamp in Xenopus laevis oocytes, KCNQ4; assay type: cell-based; conditions: oocyte expression, at EC75
Description: as §4, §5, §6, §7, §8

KCNQ5 = KCNQ5 (Homo sapiens, UniProt Q9NR82); experiment: Two-electrode voltage-clamp in Xenopus laevis oocytes, KCNQ5; assay type: cell-based; conditions: oocyte expression, at EC75
Description: as §4, §5, §6, §7, §8

KCNQ2 channels = target: T1, KCNQ2 channels (Homo sapiens, UniProt O43526); experiment: Potassium ion efflux, KCNQ2 channels expressed in CHO cells; assay type: cell-based
T1 construct: expressed in transfected cells; host or cells: CHO cells
Description: Using natively expressed M-currents present in differentiated pheochromocytoma (PC-12) cells and CHO cells transfected with KCNQ2 and hERG potassium channels, the in vitro activity of compound A on potassium ion efflux was determined.
The EC50 values for retigabine and compound A on the activation of KCNQ2 channels expressed in CHO cells were determined on three separate occasions in triplicate.

Chain of KCNQ1/NE1 (P51787 whole entry): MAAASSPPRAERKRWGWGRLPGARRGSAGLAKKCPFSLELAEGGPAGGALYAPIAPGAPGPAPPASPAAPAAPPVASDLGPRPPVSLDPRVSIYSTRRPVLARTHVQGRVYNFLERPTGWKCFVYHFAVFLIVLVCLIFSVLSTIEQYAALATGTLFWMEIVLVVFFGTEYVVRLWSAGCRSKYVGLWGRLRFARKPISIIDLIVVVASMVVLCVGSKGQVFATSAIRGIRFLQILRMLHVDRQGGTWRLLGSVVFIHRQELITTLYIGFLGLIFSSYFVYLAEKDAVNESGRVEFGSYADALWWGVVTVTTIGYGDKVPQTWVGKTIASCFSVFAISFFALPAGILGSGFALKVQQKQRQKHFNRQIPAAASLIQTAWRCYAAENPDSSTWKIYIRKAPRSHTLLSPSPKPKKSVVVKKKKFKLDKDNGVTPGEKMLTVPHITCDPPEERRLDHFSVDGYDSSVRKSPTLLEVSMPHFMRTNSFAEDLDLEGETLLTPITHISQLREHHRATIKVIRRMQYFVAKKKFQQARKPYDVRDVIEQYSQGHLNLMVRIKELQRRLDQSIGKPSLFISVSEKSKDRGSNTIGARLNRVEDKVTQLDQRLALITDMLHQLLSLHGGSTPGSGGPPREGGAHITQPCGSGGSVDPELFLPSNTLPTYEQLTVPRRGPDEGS
T1 sequence (O43526 whole entry): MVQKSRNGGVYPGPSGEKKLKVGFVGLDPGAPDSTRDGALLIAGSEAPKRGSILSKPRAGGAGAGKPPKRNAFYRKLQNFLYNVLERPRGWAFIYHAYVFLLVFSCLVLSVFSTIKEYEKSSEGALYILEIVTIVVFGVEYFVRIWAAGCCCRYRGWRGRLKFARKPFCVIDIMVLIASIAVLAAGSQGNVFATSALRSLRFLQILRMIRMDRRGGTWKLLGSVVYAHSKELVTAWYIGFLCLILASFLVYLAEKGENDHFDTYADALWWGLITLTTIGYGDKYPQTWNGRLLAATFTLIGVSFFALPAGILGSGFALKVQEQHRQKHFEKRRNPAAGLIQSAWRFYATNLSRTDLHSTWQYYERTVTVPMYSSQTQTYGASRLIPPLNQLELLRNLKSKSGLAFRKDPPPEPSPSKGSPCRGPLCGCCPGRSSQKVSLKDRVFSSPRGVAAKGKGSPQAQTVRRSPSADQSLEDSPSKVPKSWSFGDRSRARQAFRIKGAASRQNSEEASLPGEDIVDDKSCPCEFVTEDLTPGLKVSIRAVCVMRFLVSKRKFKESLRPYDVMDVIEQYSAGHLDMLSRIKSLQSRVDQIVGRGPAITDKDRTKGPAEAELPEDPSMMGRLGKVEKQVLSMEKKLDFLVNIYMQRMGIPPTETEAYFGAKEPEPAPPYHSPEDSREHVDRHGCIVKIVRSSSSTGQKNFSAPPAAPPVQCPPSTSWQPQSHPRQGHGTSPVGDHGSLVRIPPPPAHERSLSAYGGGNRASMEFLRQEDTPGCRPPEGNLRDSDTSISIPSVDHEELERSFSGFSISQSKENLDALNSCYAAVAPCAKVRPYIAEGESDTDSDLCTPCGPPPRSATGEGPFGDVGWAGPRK

CC(C)(C)CC(=O)Nc1c(Cl)cc(N2CCc3ccccc3C2)cc1C(F)(F)F
ED50 [1]: > 12 mg/kg

O=C(CCC1CCCC1)Nc1c(Cl)cc(N2CCc3ccccc3C2)cc1C(F)(F)F
ED50 [1]: > 12 mg/kg

Cc1cc(N2CCc3ccccc3C2)cc(C)c1NC(=O)CC(C)(C)C
ED50 [1]: 0.12 to 1.2 mg/kg

CC(C)(C)CC(=O)Nc1c(Cl)cc(N2CCc3cc(F)ccc3C2)cc1C(F)(F)F
ED50 [1]: > 12 mg/kg

Cc1cc(N2CCc3ccccc3C2)cc(Cl)c1NC(=O)CC(C)(C)C
ED50 [1]: 0.12 to 1.2 mg/kg

Cc1cc(N2CCc3ccc(F)cc3C2)cc(C)c1NC(=O)CC(C)(C)C
ED50 [1]: 0.12 to 1.2 mg/kg

Cc1cc(N2CCc3cc(F)ccc3C2)cc(Cl)c1NC(=O)CC(C)(C)C
ED50 [1]: > 12 mg/kg

Cc1cc(N2CCc3cc(C(F)(F)F)ccc3C2)cc(Cl)c1NC(=O)CC(C)(C)C
ED50 [1]: > 12 mg/kg

CC(C)(C)CC(=O)Nc1c(Cl)cc(N2CCc3cc(C(F)(F)F)ccc3C2)cc1C(F)(F)F
ED50 [1]: > 12 mg/kg

Cc1cc(N2CCc3cc(C(F)(F)F)ccc3C2)cc(C)c1NC(=O)CC(C)(C)C
ED50 [1]: 0.12 to 1.2 mg/kg
ED50 [2]: 0.12 to 1.2 mg/kg

O=C(CCC1CCCC1)Nc1c(Cl)cc(N2CCc3cc(F)ccc3C2)cc1C(F)(F)F
ED50 [1]: > 12 mg/kg

Cc1cc(N2CCc3cc(Cl)ccc3C2)cc(C)c1NC(=O)CC(C)(C)C
ED50 [1]: 0.12 to 1.2 mg/kg

CC(C)(C)CC(=O)Nc1c(Cl)cc(N2CCc3cc(Cl)ccc3C2)cc1C(F)(F)F
ED50 [1]: > 12 mg/kg

Cc1cc(N2CCc3ccc(F)cc3C2)cc(Cl)c1NC(=O)CC(C)(C)C
ED50 [1]: 0.12 to 1.2 mg/kg

Cc1cc(N2CCc3cc(Cl)ccc3C2)cc(Cl)c1NC(=O)CC(C)(C)C
ED50 [1]: 0.12 to 1.2 mg/kg

CC(C)(C)CC(=O)Nc1c(Cl)cc(N2CCc3ccc(F)cc3C2)cc1C(F)(F)F
ED50 [1]: > 12 mg/kg

CC(C)(C)CC(=O)Nc1ccc(N2CCc3cc(F)ccc3C2)cc1Cl
ED50 [1]: > 12 mg/kg

CC(C)(C)CC(=O)Nc1ccc(N2CCc3cc(F)ccc3C2)cc1C(F)(F)F
ED50 [1]: 0.12 to 1.2 mg/kg

CC(C)(C)CC(=O)Nc1ccc(N2CCc3cc(C(F)(F)F)ccc3C2)cc1Cl
ED50 [1]: > 12 mg/kg

Cc1cc(N2CCc3ccc(C(F)(F)F)cc3C2)cc(C)c1NC(=O)CC(C)(C)C
ED50 [1]: 0.12 to 1.2 mg/kg
ED50 [2]: 0.12 to 1.2 mg/kg

COc1cc(N2CCc3ccccc3C2)cc(C)c1NC(=O)CC(C)(C)C
ED50 [1]: 0.12 to 1.2 mg/kg

CC(C)(C)CC(=O)Nc1c(Cl)cc(N2CCc3ccccc3C2)cc1OC(F)(F)F
ED50 [1]: > 12 mg/kg

COc1cc(N2CCc3ccccc3C2)cc(OC)c1NC(=O)CC(C)(C)C
ED50 [1]: 0.12 to 1.2 mg/kg
ED50 [2]: 0.12 to 1.2 mg/kg

CC(C)(C)CC(=O)Nc1ccc(N2CCc3ccc(C(F)(F)F)cc3C2)cc1C(F)(F)F
ED50 [1]: 0.12 to 1.2 mg/kg

COc1ccc2c(c1)CCN(c1cc(C)c(NC(=O)CC(C)(C)C)c(C)c1)C2
ED50 [1]: > 12 mg/kg

Cc1cc(N2CCc3cc(F)ccc3C2)cc(C)c1NC(=O)CC(C)(C)C [drawing 119]
ED50 [1]: 0.12 to 1.2 mg/kg
ED50 [2]: 0.12 to 1.2 mg/kg

CCOC(=O)Nc1ccc(NCc2ccc(F)cc2)cc1N [retigabine, N-[2-amino-4-(4-fluorobenzylamino)phenyl]carbamic acid, ethyl ester, reference compound]
KCNQ1 Block (%) (KCNQ1): 12%
KCNQ1/NE1 Block (%) (KCNQ1/NE1): 4.3%
KCNQ2/3 Efficacy Relative to Retigabine (%) (KCNQ2/3): 100%
KCNQ4 Efficacy Relative to Retigabine (%) (KCNQ4): 100%
KCNQ5 Efficacy Relative to Retigabine (%) (KCNQ5): 100%
EC50 (KCNQ2 channels): 291 nM
